# Laboratory results from patent US12214092B2, “Systems and methods for treating biological fluids” (Cerus Corporation, priority 2017, dated 2025).
# Key:
# [1] = Amotosalen concentration in platelets in 100% plasma (75 μM/340 nm or 150 μM/INT-100), HPLC; type: physicochemical
# [2] = Residual amotosalen in whole-blood derived plasma, 50 μM, ~6.4 J/cm^2, HPLC; type: physicochemical
# From the text: This pool and split format was repeated four times to generate four replicates.
# [3] = tested on: S. epidermidis; test: Amotosalen and two sequential UV light doses (UVC + UVA) treatment of S. epidermidis in plasma, colony forming unit assay; type: cell-based; settings: 15 μM amotosalen, titer pre-UV 7.51; for Titer Post-Second: ~3 J/cm^2 each
# Protocol: Additionally, any two or more wavelengths of narrow bandwidth light are evaluated in combination, such as for example, photochemical treatment of a biological fluid using amotosalen and ultraviolet light of a first peak wavelength and ultraviolet light of a second peak wavelength, sequentially or concurrently. More specifically, in one example pathogen inactivation of E. coli (Gram negative) and S. epidermidis (Gram positive) bacteria was evaluated using amotosalen and the device with LEDs of wavelengths described in Example 8. […] The spiked plasma units were divided into control (no amotosalen+UV light) and treatment (with amotosalen) conditions, with amotosalen used at 15 μM concentration. The units were aliquoted into six-well plates (5 mL/well) for illumination. Pre-illumination samples were taken and control bacterial titers determined using standard colony forming unit assay. […] Data for pre-illumination titers, post-first illumination titer, post-second illumination titer, and post-treatment (after second illumination) residual amotosalen (S-59) are shown in the following Tables 40-41.
# [4] = tested on: feline calicivirus (FCV); settings: previously reported (Irsch et al. 2011), 150 μM S-59 with broad spectrum UVA; cited from earlier work
# [5] = Residual post-illumination amotosalen by LED wavelength in bacteria-spiked plasma, HPLC; settings: for Pre-UV S-59: pre-illumination
smiles,measurement,setting,value
"Cc1oc2c(C)c3oc(=O)cc(C)c3cc2c1COCCN [S-59, 3-(2-aminoethoxymethyl)-2,5,9-trimethylfuro[3,2-g]chromen-7-one]",% Residual S-59,[1]; 340/~6.4 (75 μM input),2.5%
same,S-59 concentration,"[1]; 340/~6.4 (75 μM input), Post-UVA",2.4 µM
same,S-59 concentration,"[1]; 340/~6.4 (75 μM input), Pre-UVA",93.3 µM
same,% Residual S-59,[1]; 340/~7.2 (75 μM input),2.0%
same,S-59 concentration,"[1]; 340/~7.2 (75 μM input), Post-UVA",1.9 µM
same,S-59 concentration,"[1]; 340/~7.2 (75 μM input), Pre-UVA",94.0 µM
same,S-59 concentration,"[1]; INT-100 (150 μM input), Post-CAD",0.2 µM
same,S-59 concentration,"[1]; INT-100 (150 μM input), Pre-UVA",173.2 µM
same,% Residual S-59,[1]; INT-100 ~3.6 J/cm^2 (150 μM input),40.1%
same,S-59 concentration,"[1]; INT-100 ~3.6 J/cm^2 (150 μM input), Post-UVA",69.4 µM
same,residual amotosalen concentration,[2]; 340 nm device,4.65 µM
same,residual amotosalen concentration,[2]; INT-100 device,17.06 µM
same,Titer Post-Second,[3]; Light 1 265 nm then Light 2 325 nm,<−0.11
same,Titer Post-Second,[3]; Light 1 265 nm then Light 2 340 nm,<−0.11
same,Titer Post-Second,[3]; Light 1 265 nm then Light 2 365 nm,<−0.11
same,Titer Post-First,[3]; Light 1 265 nm ~3 J/cm^2 (then 325 nm),4.19
same,Titer Post-First,[3]; Light 1 265 nm ~3 J/cm^2 (then 340 nm),4.37
same,Titer Post-First,[3]; Light 1 265 nm ~3 J/cm^2 (then 365 nm),4.12
same,Titer Post-Second,[3]; Light 1 280 nm then Light 2 325 nm,<−0.11
same,Titer Post-Second,[3]; Light 1 280 nm then Light 2 340 nm,<−0.11
same,Titer Post-Second,[3]; Light 1 280 nm then Light 2 365 nm,<−0.11
same,Titer Post-First,[3]; Light 1 280 nm ~3 J/cm^2 (then 325 nm),4.13
same,Titer Post-First,[3]; Light 1 280 nm ~3 J/cm^2 (then 340 nm),4.51
same,Titer Post-First,[3]; Light 1 280 nm ~3 J/cm^2 (then 365 nm),4.19
same,Titer Post-Second,[3]; Light 1 325 nm then Light 2 265 nm,<−0.11
same,Titer Post-Second,[3]; Light 1 325 nm then Light 2 280 nm,<−0.11
same,Titer Post-First,[3]; Light 1 325 nm ~3 J/cm^2 (then 265 nm),<−0.11
same,Titer Post-First,[3]; Light 1 325 nm ~3 J/cm^2 (then 280 nm),<−0.11
same,Titer Post-Second,[3]; Light 1 340 nm then Light 2 265 nm,<−0.11
same,Titer Post-Second,[3]; Light 1 340 nm then Light 2 280 nm,<−0.11
same,Titer Post-First,[3]; Light 1 340 nm ~3 J/cm^2 (then 265 nm),<−0.11
same,Titer Post-First,[3]; Light 1 340 nm ~3 J/cm^2 (then 280 nm),0.73
same,Titer Post-Second,[3]; Light 1 365 nm then Light 2 265 nm,<−0.11
same,Titer Post-Second,[3]; Light 1 365 nm then Light 2 280 nm,<−0.11
same,Titer Post-First,[3]; Light 1 365 nm ~3 J/cm^2 (then 265 nm),<−0.11
same,Titer Post-First,[3]; Light 1 365 nm ~3 J/cm^2 (then 280 nm),<−0.11
same,reduction in titer of caliciviruses (FCV),[4],1.7-2.4 log 10
same,Pre-UV S-59,"[5]; E. coli plasma, 15 μM arm, 265 nm arm",16.0 µM
same,Post-UV S-59,"[5]; E. coli plasma, 15 μM arm, 265 nm, ~3 J/cm^2",12.7 µM
same,Pre-UV S-59,"[5]; E. coli plasma, 15 μM arm, 280 nm arm",16.2 µM
same,Post-UV S-59,"[5]; E. coli plasma, 15 μM arm, 280 nm, ~3 J/cm^2",12.6 µM
same,Pre-UV S-59,"[5]; E. coli plasma, 15 μM arm, 310 nm arm",15.4 µM
same,Post-UV S-59,"[5]; E. coli plasma, 15 μM arm, 310 nm, ~3 J/cm^2",5.5 µM
same,Pre-UV S-59,"[5]; E. coli plasma, 15 μM arm, 325 nm arm",15.8 µM
same,Post-UV S-59,"[5]; E. coli plasma, 15 μM arm, 325 nm, ~3 J/cm^2",4.0 µM
same,Pre-UV S-59,"[5]; E. coli plasma, 15 μM arm, 340 nm arm",16.0 µM
same,Post-UV S-59,"[5]; E. coli plasma, 15 μM arm, 340 nm, ~3 J/cm^2",3.7 µM
same,Pre-UV S-59,"[5]; E. coli plasma, 15 μM arm, 365 nm arm",16.2 µM
same,Post-UV S-59,"[5]; E. coli plasma, 15 μM arm, 365 nm, ~3 J/cm^2",8.1 µM
same,Pre-UV S-59,"[5]; E. coli plasma, 15 μM arm, 385 nm arm",15.3 µM
same,Post-UV S-59,"[5]; E. coli plasma, 15 μM arm, 385 nm, ~3 J/cm^2",14.3 µM
same,Pre-UV S-59,"[5]; E. coli plasma, 150 μM arm, 265 nm arm",148.9 µM
same,Post-UV S-59,"[5]; E. coli plasma, 150 μM arm, 265 nm, ~3 J/cm^2",115.0 µM
same,Pre-UV S-59,"[5]; E. coli plasma, 150 μM arm, 280 nm arm",152.7 µM
same,Post-UV S-59,"[5]; E. coli plasma, 150 μM arm, 280 nm, ~3 J/cm^2",148.1 µM
same,Pre-UV S-59,"[5]; E. coli plasma, 150 μM arm, 310 nm arm",151.1 µM
same,Post-UV S-59,"[5]; E. coli plasma, 150 μM arm, 310 nm, ~3 J/cm^2",56.8 µM
same,Pre-UV S-59,"[5]; E. coli plasma, 150 μM arm, 325 nm arm",141.6 µM
same,Post-UV S-59,"[5]; E. coli plasma, 150 μM arm, 325 nm, ~3 J/cm^2",52.1 µM
same,Pre-UV S-59,"[5]; E. coli plasma, 150 μM arm, 340 nm arm",142.2 µM
same,Post-UV S-59,"[5]; E. coli plasma, 150 μM arm, 340 nm, ~3 J/cm^2",48.1 µM
same,Pre-UV S-59,"[5]; E. coli plasma, 150 μM arm, 365 nm arm",153.2 µM
same,Post-UV S-59,"[5]; E. coli plasma, 150 μM arm, 365 nm, ~3 J/cm^2",79.8 µM
same,Pre-UV S-59,"[5]; E. coli plasma, 150 μM arm, 385 nm arm",148.4 µM
same,Post-UV S-59,"[5]; E. coli plasma, 150 μM arm, 385 nm, ~3 J/cm^2",135.1 µM
same,Pre-UV S-59,"[5]; P. acnes plasma, 15 μM arm, 265 nm arm",15.7 µM
same,Post-UV S-59,"[5]; P. acnes plasma, 15 μM arm, 265 nm, ~6.4 J/cm^2",10.8 µM
same,Pre-UV S-59,"[5]; P. acnes plasma, 15 μM arm, 280 nm arm",15.7 µM
same,Post-UV S-59,"[5]; P. acnes plasma, 15 μM arm, 280 nm, ~6.4 J/cm^2",16.0 µM
same,Pre-UV S-59,"[5]; P. acnes plasma, 15 μM arm, 310 nm arm",15.7 µM
same,Post-UV S-59,"[5]; P. acnes plasma, 15 μM arm, 310 nm, ~6.4 J/cm^2",2.2 µM
same,Pre-UV S-59,"[5]; P. acnes plasma, 15 μM arm, 325 nm arm",15.7 µM
same,Post-UV S-59,"[5]; P. acnes plasma, 15 μM arm, 325 nm, ~6.4 J/cm^2",1.1 µM
same,Pre-UV S-59,"[5]; P. acnes plasma, 15 μM arm, 340 nm arm",15.7 µM
same,Post-UV S-59,"[5]; P. acnes plasma, 15 μM arm, 340 nm, ~6.4 J/cm^2",1.4 µM
same,Pre-UV S-59,"[5]; P. acnes plasma, 15 μM arm, 365 nm arm",15.7 µM
same,Post-UV S-59,"[5]; P. acnes plasma, 15 μM arm, 365 nm, ~6.4 J/cm^2",5.5 µM
same,Pre-UV S-59,"[5]; P. acnes plasma, 15 μM arm, 385 nm arm",15.7 µM
same,Post-UV S-59,"[5]; P. acnes plasma, 15 μM arm, 385 nm, ~6.4 J/cm^2",13.7 µM
same,Pre-UV S-59,"[5]; S. epidermidis plasma, 15 μM arm, 265 nm arm",14.4 µM
same,Post-UV S-59,"[5]; S. epidermidis plasma, 15 μM arm, 265 nm, ~3 J/cm^2",13.0 µM
same,Pre-UV S-59,"[5]; S. epidermidis plasma, 15 μM arm, 280 nm arm",14.8 µM
same,Post-UV S-59,"[5]; S. epidermidis plasma, 15 μM arm, 280 nm, ~3 J/cm^2",11.8 µM
same,Pre-UV S-59,"[5]; S. epidermidis plasma, 15 μM arm, 310 nm arm",14.3 µM
same,Post-UV S-59,"[5]; S. epidermidis plasma, 15 μM arm, 310 nm, ~3 J/cm^2",5.2 µM
same,Pre-UV S-59,"[5]; S. epidermidis plasma, 15 μM arm, 325 nm arm",14.9 µM
same,Post-UV S-59,"[5]; S. epidermidis plasma, 15 μM arm, 325 nm, ~3 J/cm^2",3.7 µM
same,Pre-UV S-59,"[5]; S. epidermidis plasma, 15 μM arm, 340 nm arm",14.8 µM
same,Post-UV S-59,"[5]; S. epidermidis plasma, 15 μM arm, 340 nm, ~3 J/cm^2",3.6 µM
same,Pre-UV S-59,"[5]; S. epidermidis plasma, 15 μM arm, 365 nm arm",14.8 µM
same,Post-UV S-59,"[5]; S. epidermidis plasma, 15 μM arm, 365 nm, ~3 J/cm^2",7.8 µM
same,Pre-UV S-59,"[5]; S. epidermidis plasma, 15 μM arm, 385 nm arm",15.0 µM
same,Post-UV S-59,"[5]; S. epidermidis plasma, 15 μM arm, 385 nm, ~3 J/cm^2",15.1 µM
same,residual amotosalen,[5]; amotosalen+325 nm and amotosalen+340 nm illumination,less than 5 μM
